# pKi: −log10 of the molar value.
# Tests used:
# [1] = test system: Rattus norvegicus; assay: Distribution of radio activity in tissues of unfasted male rats was measured at 60 min of time in heart after intravenous administration; assay type: ADME, organism-based; conditions: in vivo, 1 h
# [2] = test system: Rattus norvegicus; assay: Distribution of radio activity in tissues of unfasted male rats was measured as regional uptake at 60 min of time in hippocampus after intravenous administration; assay type: ADME, organism-based; conditions: in vivo, 1 h
# [3] = test system: Rattus norvegicus; assay: Distribution of radio activity in tissues of unfasted male rats was measured at 2 min of time in skin after intravenous administration; assay type: ADME, organism-based; conditions: in vivo
# [4] = test system: Rattus norvegicus; assay: Distribution of radio activity in tissues of unfasted male rats was measured as regional uptake at 60 min of time in ST/CB after intravenous administration; assay type: ADME, organism-based; conditions: in vivo, 1 h
# [5] = test system: Rattus norvegicus; assay: Distribution of radio activity in tissues of unfasted male rats was measured as regional uptake at 120 min of time in cerebellum after intravenous administration; assay type: ADME, organism-based; conditions: in vivo, 2 h
# [6] = test system: Rattus norvegicus; assay: Distribution of radio activity in tissues of unfasted male rats was measured at 120 min of time in spleen after intravenous administration; assay type: ADME, organism-based; conditions: in vivo, 2 h
# [7] = test system: Rattus norvegicus; assay: Distribution of radio activity in tissues of unfasted male rats was measured at 2 min of time in thyroid after intravenous administration; assay type: ADME, organism-based, Thyroid gland; conditions: in vivo
# [8] = test system: Rattus norvegicus; assay: Distribution of radio activity in tissues of unfasted male rats was measured at 60 min of time in liver after intravenous administration; assay type: ADME, organism-based; conditions: in vivo, 1 h
# [9] = test system: Rattus norvegicus; assay: Distribution of radio activity in tissues of unfasted male rats was measured at 30 min of time in liver after intravenous administration; assay type: ADME, organism-based; conditions: in vivo, 0.5 h
# [10] = test system: Rattus norvegicus; assay: Distribution of radio activity in tissues of unfasted male rats was measured at 60 min of time in kidney after intravenous administration; assay type: ADME, organism-based; conditions: in vivo, 1 h
# [11] = test system: Rattus norvegicus; assay: Distribution of radio activity in tissues of unfasted male rats was measured at 120 min of time in thyroid after intravenous administration; assay type: ADME, organism-based, Thyroid gland; conditions: in vivo, 2 h
# [12] = test system: Rattus norvegicus; assay: Distribution of radio activity in tissues of unfasted male rats was measured at 120 min of time in blood after intravenous administration; assay type: ADME, organism-based; conditions: in vivo, 2 h
# [13] = test system: Rattus norvegicus; assay: Distribution of radio activity in tissues of unfasted male rats was measured at 30 min of time in thyroid after intravenous administration; assay type: ADME, organism-based, Thyroid gland; conditions: in vivo, 0.5 h
# [14] = test system: Rattus norvegicus; assay: Distribution of radio activity in tissues of unfasted male rats was measured as regional uptake at 30 min of time in hippocampus after intravenous administration; assay type: ADME, organism-based; conditions: in vivo, 0.5 h
# [15] = test system: Rattus norvegicus; assay: Distribution of radio activity in tissues of unfasted male rats was measured at 120 min of time in skin after intravenous administration; assay type: ADME, organism-based; conditions: in vivo, 2 h
# [16] = test system: Rattus norvegicus; assay: Distribution of radio activity in tissues of unfasted male rats was measured as regional uptake at 30 min of time in ST/CB after intravenous administration; assay type: ADME, organism-based; conditions: in vivo, 0.5 h
# [17] = test system: Rattus norvegicus; assay: Distribution of radio activity in tissues of unfasted male rats was measured at 30 min of time in kidney after intravenous administration; assay type: ADME, organism-based; conditions: in vivo, 0.5 h
# [18] = test system: Rattus norvegicus; assay: Distribution of radio activity in tissues of unfasted male rats was measured as regional uptake at 2 min of time in ST/CB after intravenous administration; assay type: ADME, organism-based; conditions: in vivo
# [19] = test system: Rattus norvegicus; assay: Distribution of radio activity in tissues of unfasted male rats was measured at 30 min of time in brain after intravenous administration; assay type: ADME, organism-based; conditions: in vivo, 0.5 h
# [20] = test system: Rattus norvegicus; assay: Distribution of radio activity in tissues of unfasted male rats was measured as regional uptake at 120 min of time in ST/CB after intravenous administration; assay type: ADME, organism-based; conditions: in vivo, 2 h
# [21] = test system: Rattus norvegicus; assay: Distribution of radio activity in tissues of unfasted male rats was measured at 30 min of time in lung after intravenous administration; assay type: ADME, organism-based; conditions: in vivo, 0.5 h
# [22] = test system: Rattus norvegicus; assay: Distribution of radio activity in tissues of unfasted male rats was measured at 2 min of time in muscle after intravenous administration; assay type: ADME, organism-based, Muscle tissue; conditions: in vivo
# [23] = test system: Rattus norvegicus; assay: Distribution of radio activity in tissues of unfasted male rats was measured as regional uptake at 60 min of time in cerebellum after intravenous administration; assay type: ADME, organism-based; conditions: in vivo, 1 h
# [24] = target: Sodium-dependent dopamine transporter (Rattus norvegicus, UniProt P23977); assay: Inhibitory constant towards reuptake of [125I]-13 from dopamine transporter in rat striatal membranes; assay type: cell membranes, Membrane
# [25] = test system: Rattus norvegicus; assay: Distribution of radio activity in tissues of unfasted male rats was measured at 60 min of time in lung after intravenous administration; assay type: ADME, organism-based; conditions: in vivo, 1 h
# [26] = test system: Rattus norvegicus; assay: Distribution of radio activity in tissues of unfasted male rats was measured at 2 min of time in brain after intravenous administration; assay type: ADME, organism-based; conditions: in vivo
# [27] = test system: Rattus norvegicus; assay: Distribution of radio activity in tissues of unfasted male rats was measured as regional uptake at 120 min of time in cortex after intravenous administration; assay type: ADME, organism-based; conditions: in vivo, 2 h
# [28] = test system: Rattus norvegicus; assay: Distribution of radio activity in tissues of unfasted male rats was measured as regional uptake at 2 min of time in striatum after intravenous administration; assay type: ADME, organism-based; conditions: in vivo
# [29] = test system: Rattus norvegicus; assay: Distribution of radio activity in tissues of unfasted male rats was measured as regional uptake at 30 min of time in cortex after intravenous administration; assay type: ADME, organism-based; conditions: in vivo, 0.5 h
# [30] = test system: Rattus norvegicus; assay: Distribution of radio activity in tissues of unfasted male rats was measured at 30 min of time in heart after intravenous administration; assay type: ADME, organism-based; conditions: in vivo, 0.5 h
# [31] = test system: Rattus norvegicus; assay: Distribution of radio activity in tissues of unfasted male rats was measured at 2 min of time in heart after intravenous administration; assay type: ADME, organism-based; conditions: in vivo
# Sequence of Sodium-dependent dopamine transporter (P23977 whole entry): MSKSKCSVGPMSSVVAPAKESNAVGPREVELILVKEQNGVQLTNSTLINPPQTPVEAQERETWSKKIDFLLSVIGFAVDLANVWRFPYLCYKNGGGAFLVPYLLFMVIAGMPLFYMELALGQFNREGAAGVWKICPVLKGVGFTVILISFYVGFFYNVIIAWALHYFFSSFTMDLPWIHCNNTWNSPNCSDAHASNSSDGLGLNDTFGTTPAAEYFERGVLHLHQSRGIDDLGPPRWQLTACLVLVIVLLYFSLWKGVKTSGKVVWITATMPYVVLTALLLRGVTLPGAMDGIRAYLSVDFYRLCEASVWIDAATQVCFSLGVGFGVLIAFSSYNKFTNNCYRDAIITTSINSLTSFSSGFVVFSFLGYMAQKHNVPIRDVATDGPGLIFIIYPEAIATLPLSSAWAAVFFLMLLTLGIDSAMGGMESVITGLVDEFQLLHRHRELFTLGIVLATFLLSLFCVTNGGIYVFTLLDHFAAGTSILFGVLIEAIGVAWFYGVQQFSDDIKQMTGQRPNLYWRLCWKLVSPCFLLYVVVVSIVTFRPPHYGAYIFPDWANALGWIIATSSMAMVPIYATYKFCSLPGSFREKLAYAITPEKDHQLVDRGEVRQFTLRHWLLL
compound,measurement,setting,value
COC(=O)C1C(c2ccc(Cl)cc2)CC2CCC1N2C/C=C/I (stereo unspecified),Injected dose/organ,[1],0.19%
same,Dose/g,[2],0.095%
same,Injected dose/organ,[3],5.14%
same,Dose/g,[4],15.9%
same,Dose/g,[5],0.037%
same,Injected dose/organ,[6],0.09%
same,Injected dose/organ,[7],0.06%
same,Injected dose/organ,[8],1.97%
same,Injected dose/organ,[9],3.72%
same,Injected dose/organ,[10],0.58%
same,Injected dose/organ,[11],1.06%
same,Injected dose/organ,[12],4.77%
same,Injected dose/organ,[13],0.76%
same,Dose/g,[14],0.26%
same,Injected dose/organ,[15],20%
same,Dose/g,[16],6.91%
same,Injected dose/organ,[17],0.86%
same,Dose/g,[18],1.18%
same,Injected dose/organ,[19],0.58%
same,Dose/g,[20],16.5%
same,Injected dose/organ,[21],0.91%
same,Injected dose/organ,[22],28.27%
same,Dose/g,[23],0.077%
same,pKi,[24],8.49
same,Injected dose/organ,[25],0.4%
same,Injected dose/organ,[26],1.62%
same,Dose/g,[27],0.05%
same,Dose/g,[28],1.15%
same,Dose/g,[29],0.22%
same,Injected dose/organ,[30],0.29%
same,Injected dose/organ,[31],1.05%

# From ChEMBL document CHEMBL1127517 (J Med Chem, 1994)
